From patent US5324708A, “Non-hygroscopic monoammonium salts of phosphonic and phosphinic acids” (Aklaloida Vegyeszeti Gyar Rt., priority 1991, dated 1994)
Where a name gives a salt, the structure may show the parent alone. Read-outs that look alike come from different tables or passages of the source.

What was measured:
[1] = Water solubility of products (in words); type: physicochemical
[2] = Hygroscopicity of products (in words); type: physicochemical; settings: product of the example
Procedure: "Non-hygroscopic" according to our invention means, that when exposed at 25° C. to an environment containing 60% humidity no observable uptake of water takes place within 3 weeks or this uptake is less than 0.1%. The salts are crystalline, they have melting point ranges that are different from those published before and their water-solubility is somewhat increased as compared with the salts prepared with the known methods.

[3] = Uptake of humidity in open containers at 60% humidity and 25° C. (Table VI); type: physicochemical; settings: 60% humidity
Procedure: The samples were investigated in open containers, at 60% humidity and 25° C.

[4] = Solubility tests, N-(phosphonomethyl)-glycine and its salts (Table IV); type: physicochemical
Description: Table IV illustrates some solubility values of the mono-isopropylammonium salts and di-isopropylammonium salts of N-(phosphonomethyl)-glycine on the basis of which the processes according to our invention can be reduced to practice. All solvents or solvent-mixtures can be used for our processes which show a reasonable solubility--difference between the salts and products that have to be separated.

[5] = according to prior publications; cited from earlier work

Compound: O=C(O)CNCP(=O)(O)O [Example I.1, mono-isopropylammonium salt of N-(phosphonomethyl)-glycine]
- solubility in water (in words) [1]: readily soluble
- hygroscopicity (in words) [2]: not hygroscopic

Compound: O=C(O)CNCP(=O)(O)O [Example I.2, mono-isopropylammonium salt of N-(phosphonomethyl)-glycine]
- solubility in water (in words) [1]: readily soluble
- hygroscopicity (in words) [2]: not hygroscopic

Compound: O=C(O)CNCP(=O)(O)O [Example I.12, mono-isopropylammmonium salt of N-(phosphonomethyl)-glycine]
- solubility in water (in words) [1]: readily soluble
- hygroscopicity (in words) [2]: non-hygroscopic

Compound: O=C(O)CNCP(=O)(O)O [Example I.15, mono-isopropylammonium salt of N-(phosphonomethyl)-glycine]
- solubility in water (in words) [1]: readily soluble
- hygroscopicity (in words) [2]: non-hygroscopic

Compound: O=C(O)CNCP(=O)(O)O [Example I.18, mono-(dimethyl-ammonium)-salt of N-(phosphonomethyl)-glycine]
- solubility in water (in words) [1]: readily soluble
- hygroscopicity (in words) [2]: non-hygroscopic

Compound: O=C(O)CNCP(=O)(O)O [Example I.20, mono-isopropylammonium salt of N-(phosphonomethyl)-glycine]
- solubility in water (in words) [1]: readily soluble
- hygroscopicity (in words) [2]: non-hygroscopic

Compound: O=C(O)CNCP(=O)(O)O [Example I.24, mono-isopropylammonium salt of N-(phosphonomethyl)-glycine]
- solubility in water (in words) [1]: readily soluble
- hygroscopicity (in words) [2]: non-hygroscopic

Compound: O=C(O)CNCP(=O)(O)O [I.7, mono-isopropylammonium salt of N-(phosphonomethyl)-glycine]
- hygroscopicity (in words) [2]: non-hygroscopic

Compound: O=C(O)CNCP(=O)(O)O [I.8, mono-isopropylammoniumsalt of N-(phosphonomethyl)-glycine]
- solubility in water (in words) [1]: readily soluble
- hygroscopicity (in words) [2]: non-hygroscopic

Compound: CP(=O)(O)CCC(N)C(=O)O (stereo not shown) [I.9, mono-isopropylammoniumsalt of (3-amino-3-carboxy-propyl)-methane-phosphinic acid]
- hygroscopicity (in words) [2]: non-hygroscopic

Compound: CP(=O)(O)CCC(N)C(=O)O (stereo not shown) [I.10, mono-isopropylammoniumsalt of (3-amino-3-carboxy-propyl)-methane-phosphinic acid]
- hygroscopicity (in words) [2]: non-hygroscopic

Compound: O=C(O)CNCP(=O)(O)O [I.13, mono-isopropylammmonium salt of N-(phosphonomethyl)-glycine]
- solubility in water (in words) [1]: readily soluble
- hygroscopicity (in words) [2]: non-hygroscopic

Compound: O=C(O)CNCP(=O)(O)O [I.14, mono-isopropylammonium salt of N-(phosphonomethyl)-glycine]
- solubility in water (in words) [1]: readily soluble
- hygroscopicity (in words) [2]: non-hygroscopic

Compound: O=C(O)CNCP(=O)(O)O [I.16, mono-isopropylammonium salt of N-(phosphonomethyl)-glycine]
- solubility in water (in words) [1]: readily soluble
- hygroscopicity (in words) [2]: non-hygroscopic

Compound: O=C(O)CNCP(=O)(O)O [I.17, mono-isopropylammonium salt of N-(phosphonomethyl)-glycine]
- solubility in water (in words) [1]: readily soluble
- hygroscopicity (in words) [2]: non-hygroscopic

Compound: O=C(O)CNCP(=O)(O)O [I.19, mono-ethylammonium salt of N-(phosphonomethyl)-glycine]
- solubility in water (in words) [1]: readily soluble
- hygroscopicity (in words) [2]: non-hygroscopic

Compound: O=C(O)CNCP(=O)(O)O [I.21, mono-isopropylammonium salt of N-(phosphonomethyl)-glycine]
- solubility in water (in words) [1]: readily soluble
- hygroscopicity (in words) [2]: non-hygroscopic

Compound: O=C(O)CNCP(=O)(O)O [I.22, mono-isopropylammonium salt of N-(phosphonomethyl)-glycine]
- solubility in water (in words) [1]: readily soluble
- hygroscopicity (in words) [2]: non-hygroscopic

Compound: O=C(O)CNCP(=O)(O)O [I.23, mono-isoptopylammonium salt of N-(phosphonomethyl)-glycine]
- solubility in water (in words) [1]: readily soluble
- hygroscopicity (in words) [2]: non-hygroscopic

Compound: O=C(O)CNCP(=O)(O)O [I.25, mono-isopropylammonium salt of N-(phosphonomethyl)-glycine]
- solubility in water (in words) [1]: readily soluble
- hygroscopicity (in words) [2]: non-hygroscopic

Compound: O=C(O)CNCP(=O)(O)O [I.26, mono-isopropylammonium salt of N-(phosphonomethyl)-glycine]
- solubility in water (in words) [1]: readily soluble
- hygroscopicity (in words) [2]: non-hygroscopic

Compound: O=C(O)CNCP(=O)(O)O [di-IPA salt, di-(mono-isopropylamine)-salt of N-(phosphonomethyl)-glycine]
- solubility in water (in words) [1]: readily soluble
- Uptake of humidity ([3]; 1 day, listed as di-isopropyl-ammonium salt of N-(phosphonomethyl)-glycine): 13.0%
- Uptake of humidity ([3]; 2 days, listed as di-isopropyl-ammonium salt of N-(phosphonomethyl)-glycine): 14.5%
- Uptake of humidity ([3]; 7 days, listed as di-isopropyl-ammonium salt of N-(phosphonomethyl)-glycine): 16.1%
- Uptake of humidity ([3]; 14 days, listed as di-isopropyl-ammonium salt of N-(phosphonomethyl)-glycine): 18.8%
- Uptake of humidity ([3]; 30 days, listed as di-isopropyl-ammonium salt of N-(phosphonomethyl)-glycine): 19.2%
- Uptake of humidity ([3]; 90 days, listed as di-isopropyl-ammonium salt of N-(phosphonomethyl)-glycine): 30.9%
- Appearance ([3]; within 1 day): sticky and hygroscopic
- Appearance ([3]; within 4 days): completely liquid
- SOLUBILITY ([4]; benzene): < 0.1 g/L
- SOLUBILITY ([4]; benzyl-alcohol): 420 g/L
- SOLUBILITY ([4]; dimethyl-formamide): 22 g/L
- SOLUBILITY ([4]; isopropyl amine): < 0.1 g/L
- SOLUBILITY ([4]; methanol): 570 g/L
- SOLUBILITY ([4]; n-butanol): 35 g/L
- SOLUBILITY ([4]; n-propanol): 170 g/L
- SOLUBILITY ([4]; propylene-glycol): 244 g/L

Compound: O=C(O)CNCP(=O)(O)O [glyphosate, N-(phosphonomethyl)-glycine]
- SOLUBILITY ([4]; benzene): < 0.1 g/L
- SOLUBILITY ([4]; benzyl-alcohol): < 0.2 g/L
- SOLUBILITY ([4]; dimethyl-formamide): < 0.2 g/L
- SOLUBILITY ([4]; ethanol): 0.2 g/L
- SOLUBILITY ([4]; isopropanol): < 0.5 g/L
- SOLUBILITY ([4]; methanol): < 0.3 g/L
- SOLUBILITY ([4]; n-propanol): < 0.5 g/L
- SOLUBILITY ([4]; water): 12 g/L

Compound: O=C(O)CNCP(=O)(O)O [mono-IPA salt, mono-isopropylammonium salt of N-(phosphonomethyl)-glycine]
- Uptake of humidity ([3]; 1 day): 0.1%
- Uptake of humidity ([3]; 2 days): 0.1%
- Uptake of humidity ([3]; 7 days): 0.1%
- Uptake of humidity ([3]; 14 days): 0.1%
- Uptake of humidity ([3]; 30 days): 0.1%
- Uptake of humidity ([3]; 90 days): 0.1%
- Appearance ([3]; after 30 days): unchanged
- SOLUBILITY ([4]; benzene): < 0.1 g/L
- SOLUBILITY ([4]; benzyl-alcohol): 0.5 g/L
- SOLUBILITY ([4]; dimethyl-formamide): 1.8 g/L
- SOLUBILITY ([4]; isopropyl amine): < 0.1 g/L
- SOLUBILITY ([4]; methanol): 56 g/L
- SOLUBILITY ([4]; n-butanol): 0.1 g/L
- SOLUBILITY ([4]; n-propanol): 0.7 g/L
- SOLUBILITY ([4]; propylene-glycol): 184.0 g/L
- SOLUBILITY ([4]; water): 1470 g/L
- hygroscopicity (in words) [5]: extreme hygroscopic nature

Compound: CP(=O)(O)CCC(N)C(=O)O (stereo not shown) [mono-ammonium salt, (3-amino-3-carboxy-propyl)-methane-phosphinic acid ammonium salt]
- hygroscopicity (in words) [5]: hygroscopic
